Laboratory results: USRE42961E1, “Use of autonomic nervous system neurotransmitters inhibition and atrial parasympathetic fibers ablation for the treatment of atrial arrhythmias and to preserve drug effects” (St. Jude Medical, Atrial Fibrillation Division, Inc., priority 2000, dated 2011)
Values joined by “and” are separate entries in the source; they are usually repeats but may differ in a detail not shown here. Equal values may be shown once.

Experiments:
[1] = tested on: atrial flutter circuit; test: Canine Y-shaped lesion model of sustained stable atrial flutter; reset-response measurement of cycle length, refractory period and excitable gap during neurotransmitter infusion with or without sotalol; format: in vivo, dog
Description: In a group of 13 open chest anaesthetised dogs, atrial flutter model was produced during baseline conditions around the tricuspid valve using a Y-shaped lesion in the intercaval area extending to the right atrial appendage. Atrial flutter was induced at the shortest effective refractory period site using fast pacing stimulation (S1S1) of 100-150 ms. This manoeuvre was repeated as much as necessary with more damage in the Y-shaped lesion model to achieve a sustained stable atrial flutter (>10 min) during the baseline conditions. In order to determine the excitable gap duration and composition during this sustained and stable atrial flutter, a diastole was scanned with a single premature extrastimulus, S1S2 (S1S2=]refractory period, flutter cycle length[) to define the atrial flutter circuit composition and duration (flutter cycle length=refractory period+excitable gap). Atrial flutter cycle length, atrial effective refractory period and duration of the excitable gap were then determined. Measures were repeated during a constant infusion into the right coronary artery of norepinephrine (15 μg/min) and acetylcholine (2 μg/min) allowing 15 min for recovery from norepinephrine effects. The effects of norepinephrine and acetylcholine at a constant plasma level of d-sotalol or d,l-sotalol (0.8 mg/kg+0.4 mg/kg/hr) were also studied in 2 different groups of chloralose anaesthetised dogs on the same electrophysiological parameters described above.
Atrial Flutter protocol: All experiments described were in accordance with institutional guidelines for animal experimentation. Fourteen mongrel dogs of either sex, weight 29-45 kg, were studied in the post-absorptive state. General anaesthesia was induced with sodium thiopental (25 mg/kg iv.) and maintained with chloralose (80 mg/kg iv. bolus supplemented by 20 mg/kg/hr maximum as needed). The dogs were intubated and ventilated (Harvard pump) with room air (10 breaths/min, tidal volume to achieve a maximum inspiratory pressure of 20 cm water) to maintain arterial pH 7.35-7.45 and PaO2>80 mm Hg. Arterial and venous cannulae were inserted in the left femoral artery and vein by direct cut down for blood pressure monitoring and drug administration, respectively. An additional venous cannulae was inserted in the right femoral vein or in the right internal jugular vein for blood sampling. Muscular relaxation was then induced with gallamine triethiodide (Flaxedil 100) 3 mg/kg intravenously. A right thoracotomy was performed via the fourth or fifth intercostal space and the pericardium was incised to provide access to the vena cava and the right atrium. […] A second line, extending from the first two-thirds of the way toward the tip of the right atrial appendage and parallel to 1-2 cm above the atrioventricular groove, was similarly incised and sewn over. Five close (2-4 mm) bipolar epicardial silver electrodes (insulated except at the tip) for stimulating and/or recording were sewn around the base of the right atrium within 1 cm of the tricuspid annulus. Three were positioned on the anterior surface and two on the posterior surface (Derakhchan K, et al., 1994). An arterial cannula was inserted in the right coronary artery for neurotransmitter infusion.
Measurement of electrophysiologic parameters: A single lead (II) surface electrocardiogram, atrial electrograms from each of the 5 bipolar electrodes, and the femoral arterial pressure were monitored and recorded using a Nihon Kohden polygraph (Model RM6008). Data were also stored on a Hewlett-Packard tape recorder. Atrial flutter was induced by burst stimulation (20-30 beats at basic cycle length <100 ms). During stable flutter (cycle length variation <10 ms), a premature stimulus was introduced at the site located on this re-entry circuit after every 20th spontaneous beat (T) in 2 ms decrements beginning at coupling intervals equal to the cycle length of this atrial tachycardia. […]

[2] = tested on: atrial fibrillation; test: Canine atrial fibrillation model with vagal and stellar ganglion denervation/stimulation (ERP duration and dispersion, conduction velocity, wavelength, AF duration); format: in vivo, dog; settings: vagal stimulation in the presence of class III drug therapy
Description: In a group of 14 anaesthetised open chest dogs, atrial fibrillation was induced by fast pacing and up to 10 attempts of arrhythmia initiations during baseline condition, vagal denervation, right and left vagal stimulation #1 (1 Hz, 0.1 ms), right and left stellar ganglions denervation, right and left vagal stimulation #2 (1 Hz, 0.1 ms), right and left stellar ganglions stimulation (10 Hz, 2 ms), and right and left vagal stimulation (1 Hz, 0.1 ms) associated with right and left stellar ganglions stimulation (10 Hz, 2 ms). Under the same conditions described above, the effective refractory period duration and dispersion (at S1S1=200 ms), the conduction velocity and the wavelength are determined. Atrial fibrillation occurrence was evaluated by the mean duration of 10 atrial fibrillation episodes at baseline (for a group of animals when none of the 10 atrial fibrillation episodes at baseline were lasting more than 3 minutes) and following each of the conditions described above. […]
Activation Mapping: Five thin plastic sheets containing 112 bipolar electrodes with 1 mm interpolar and 6 mm interelectrode distances were sewn into position on atrial epicardial surface. […] Each electrogram was analyzed with computer-determined peak-amplitude criteria and was reviewed manually. […] Isochrone maps and activation times for each activation were recorded by the use of IBM ink jet printer. […]

[3] = tested on: atrial flutter; settings: intravenous atropine and propranolol together; supine or upright position; cited from earlier work
[4] = tested on: common human atrial flutter; settings: cited from earlier work
[5] = d,l-sotalol group, 7 dogs, NE 15 μg/min, ACh 2 μg/min into right coronary artery, d,l-sotalol 0.8 mg/kg+0.4 mg/kg/hr
[6] = d-sotalol group, 6 dogs, NE 15 μg/min, ACh 2 μg/min into right coronary artery, d-sotalol 0.8 mg/kg+0.4 mg/kg/hr

SMILES	Atrial Flutter Cycle Length (AF1CL), mean [1, 5]	Atrial Effective Refractory Period (AERP), mean [1, 5]	Atrial Flutter Cycle Length (AF1CL), mean [1, 6]	effect on atrial flutter cycle length [3]	also measured
CC(C)NCC(O)c1ccc(NS(C)(=O)=O)cc1 (racemic) [d,1-S, d,l-Sotalol]	143.0 ms	–	–	–	antiarrhythmic therapeutic effects under vagal stimulation [2]: significantly and markedly reversed
CC(=O)OCC[N+](C)(C)C [ACh, acetylcholine]	119 ± 17 ms and 119.0000 ms and 119.0 ms	64 ± 4 ms and 63.6000 ms and 63.6 ms	123 ± 15 ms and 122.6667 ms and 122.7 ms	–	Effective Refractory Period duration (ERPdur), mean [1, 6]: 65 ± 5 ms and 64.8000 ms and 64.8 ms; Excitable Gap duration (EGdur), mean [1, 6]: 48 ± 16 ms and 47.6000 ms and 47.6 ms
NC[C@H](O)c1ccc(O)c(O)c1 [NE, norepinephrine]	132 ± 8 ms and 131.7500 ms and 131.8 ms	93 ± 7 ms and 93.0000 ms and 93.0 ms	133 ± 12 ms and 133.0000 ms and 133.0 ms	–	reversal of d-sotalol effects on atrial flutter cycle length and effective refractory period duration ([1]; in the presence of d-sotalol): significantly reversed; effect on effective refractory period duration ([1]; infusion alone, d-sotalol group, 6 animals): significantly shortened; occurrence of the initiation of atrial flutter ([1]; neurotransmitter infusion, acetylcholine>>norepinephrine): significantly increased
CN1[C@@H]2CC[C@H]1C[C@@H](OC(=O)C(CO)c1ccccc1)C2 (stereo partly shown) [atropine]	–	–	–	did not change	–
CC[N+](C)(C)c1cccc(O)c1 [edrophonium]	–	–	–	–	effect on monophasic atrial action potential duration or atrial flutter cycle length [4]: no significant effect
CC(C)NCC(O)COc1cccc2ccccc12 (stereo not shown) [propranolol]	–	–	–	did not change	–
